Like-named read-outs stand apart in the source and are kept apart here.
What was measured:
Calu-6 cells = test: Calu-6 (Kras Q61K) antiproliferative activity experiment (CellTiterGlo); type: cell-based, human; conditions: cultured three days
Experimental: Experimental Embodiment 1: Calu-6 (Kras^Q61K) Antiproliferative Activity Experiment
(1) cell culture medium: 88% RPMI-1640, 10% fetal bovine serum, 1% L-glutamine and 1% penicillin-streptomycin;
(2) culture medium, trypsin and DPBS were preheated in a 37° C. water bath;
(3) the original culture medium was removed in the cell culture flask and washed once with 6 mL of PBS;
(4) 3.5 mL of trypsin was added to the cell culture flask, and the cell culture flask was shaken gently, and the trypsin was removed after full contact with the cell, and then the culture flask was placed into a 37° C. incubator containing 5% CO2 for about 1 minute;
(5) the cells were resuspended with 10 mL of cell culture medium, and about 0.6 mL of cell suspension (ViCell XR) was taken out for counting;
(§1) (6) the cell suspension was diluted with culture medium to a cell density required for plating of 2.5×10^4 cells per mL;
(7) 100 μL of PBS was added to each well around the cell plate, and 40 μL of cell suspension was added to the other wells, and placed in a 37° C. incubator containing 5% CO2 for overnight culture.
(§2) (8) The required cell amount and culture medium were taken based on the new T75 culture flask for continued culture.
(§3) (1) the compound to be tested was prepared into […] solution with DMSO;
(2) 9 μL of the compound was taken and added to Echo shallow well plate (Labcyte, #LP-0200), and the shallow well plate was centrifuged at 1000 rpm for 10 seconds;
(3) DPBS at the periphery of the cell plate was sucked out;
(4) the compound was gradient diluted and administrated with Echo, and 10 concentration gradients of each compound were diluted, and 100 nL of the diluent was added to the 384 cell plate separately, and then the cell plate was put back to the incubator and cultured for three days;
(5) then 100 μL of DPBS was added to the periphery of the cell plate.
(1) CTG was added and the plate was read: 20 μL of CellTiterGlo was added to each well of the cell plate, and the cell plate was shaken in the dark for 10 min. and the plate was read on Envision.

[1] = system: ERK phosphorylation in Calu-6 cells; test: Calu-6 (Kras Q61K) ERK phosphorylation inhibition experiment (HTRF); type: cell-based, human; conditions: 1 hour incubation with compound
Experimental: Experimental Embodiment 5: Calu-6 (Kras^Q61K) ERK Phosphorylation Inhibition Experiment
1) the cells were resuscitated and cultured to logarithmic growth phase, digested with trypsin, seeded in 96-well plates with 30000 cells per well, and incubated overnight in an incubator.
2) 1 μL of gradient compound dissolved with DMSO was added to a 96-well plate and placed back into an incubator to incubate for 1 hour.
3) The cell plates were removed out, and the culture medium was poured off, and 50 μL of cell lysate (with 1% blocking peptide) was added to each well.
4) The lysate plate was mixed at 500 rpm and incubated and lysed at room temperature for 30 minutes.
5) The antibody mixture in the kit was prepared at a ratio of 1:1:38.
6) 16 μL of cell lysate was transferred to the HTRF plate per well, then the 4 μL of the configured antibody mixture was added thereto.
7) After incubation overnight, the plate was read with Envision, and the fitted curve was obtained according to the ratio (the ratio of fluorescence intensity of […]) and the EC50 was calculated according to the four-parameter fitting formula Y=Bottom+(Top−Bottom)/(1+10^((Log EC50−X)*HillSlope)) of Graphpad.

[2] = Pharmacokinetics of single intravenous and oral administration in mice; type: in vivo; conditions: 50 mg/kg/day, single oral administration, 50 mg/kg/day; for Cmax: read-out: Maximum plasma drug concentration Cmax; for Tmax: read-out: Peak time Tmax
Experimental: Experimental Embodiment 6: Pharmacokinetics Study of Single Intravenous and Oral Administration in Mice and Dogs
This experiment was aimed to study the pharmacokinetics of the test compound in mice and dogs in vivo after a single oral administration of the compound.
After intravenous or oral administration, blood samples were collected and the actual blood collection time was recorded. After the blood sample was collected, the sample was immediately transferred to a labeled centrifuge tube containing K2-EDTA, and then the plasma was taken after centrifugation. The plasma was transferred to a precooled centrifuge tube, quickly frozen in dry ice, and stored in an ultra-low temperature refrigerator at −70±10° C. until LC-MS/MS analysis.
Pharmacokinetic software was used to process the plasma drug concentration data of the compound with […] model. The peak concentration (Cmax) and peak time (Tmax), as well as the end time of quantification, were obtained directly from the plasma drug concentration-time graph. The following pharmacokinetic parameters were calculated by logarithmic linear trapezoidal method: half-life (T1/2), apparent distribution volume (Vdss) and clearance rate (Cl), and the area under the time-plasma concentration curve from 0 to the end time point (AUC0-last).

A375 cells = test: A375 (BRAF V600E) antiproliferative activity experiment (CellTiter-glo); type: cell-based; conditions: Homo sapiens, A-375, 120 h, cultured 5 days
Experimental: Experimental Embodiment 3: A375 (BRAF^V600E) Antiproliferative Activity Experiment
Cell line A375 (purchased from Procell). DMEM culture medium, penicillin/streptomycin antibiotics were purchased from Vicente, and fetal bovine serum was purchased from Biosera. CellTiter-glo (cell viability chemiluminescence detection reagent) reagent was purchased from Promega.
A375 cells were seeded in a white 96 well plate with […] of cell suspension per well containing 2000 of A375 cells. The cell plate was placed in a carbon dioxide incubator and cultured overnight. The compound to be tested was diluted 3-fold to the 9th concentration with a pipette, that is, diluted from 6 mmol to 0.91 μmol, and a double-duplicate experiment was set-up, 78 μmol of culture medium was added to the middle plate, then 2 μmol of gradient dilution compound per well was transferred to the middle plate according to the corresponding position, and 20 μmol per well was mixed and transferred to the cell plate. The concentration of the compound transferred to the cell plate ranged from 30 μmol to 4.57 nmol. The cell plate was placed in a carbon dioxide incubator and cultured for 5 days. Another cell plate was prepared, and the signal value was read as the maximum value (max value in the following equation) on the day of administration to participate in data analysis, 25 μmol of cell viability chemiluminescence detection reagent was added to each well of the cell plate and incubated at room temperature for 10 minutes to stabilize the luminescence signal. A multi-marker analyzer reading was used. After the incubation of the cell plate added with the compound was finished, 25 μmol of cell viability chemiluminescence detection reagent was added to each well of the cell plate and incubated at room temperature for 10 minutes to stabilize the luminescence signal. A multi-marker analyzer reading was used.
(§4) The equation (Sample−Min)/(Max−Min)*100% was used to convert the original data into inhibition rate, and the IC50 value could be obtained by curve fitting with four parameters (obtained by “log (inhibitor) vs. response—variable slope” mode in GraphPad Prism).

HCT116 cells = test: HCT116 (Kras G13D) antiproliferative activity experiment (CellTiter Glo); type: cell-based; conditions: Homo sapiens, HCT-116, 72 h, cultured 3 days
Experimental: Experimental Embodiment 2: HCT116 (Kras^G13D) Antiproliferative Activity Experiment
(1) cell culture medium: 89% Mc′Coy 5A, 10% fetal bovine serum and 1% penicillin-streptomycin;
(2) culture medium and trypsin were preheated in a 37° C. water bath;
(3) the culture medium was removed in the cell culture flask and washed once with 1 mL of trypsin;
(4) 1 mL of trypsin was added to the cell culture flask, and the cell culture flask was shaken gently, and the trypsin was removed after full contact with the cell, and then the culture flask was placed into a 37° C. incubator containing 5% CO2 for about 1 minute;
(5) the cells were resuspended with 2 mL of cell culture medium, and about 0.01 mL of cell suspension was taken out for counting;
as §1
(7) 100 μL of culture medium was added to each well around the cell plate, and 80 μL of cell suspension was added to the other wells, and placed in a 37° C. incubator containing 5% CO2 for overnight culture.
as §2, §3
(2) 9 concentration gradients and 3-fold dilutions were performed on the compounds, that is, a double-duplicate experiment was set from 6 mmol to 2.7 μmol, and 78 μL of culture medium was added to the middle plate, and then 2 μL of gradient diluted compound per well was transferred to the middle plate according to the corresponding position, and after mixing, 20 μL per well was transferred to the cell plate, and the final concentration of the compound transferred to the cell plate was 30 μmol to 13.7 nmol. The cell plate was placed in a carbon dioxide incubator and cultured for another 3 days.
(1) CTG was added and the plate was read: 20 μL of CellTiter Glo was added to each well of the cell plate, and the cell plate was shaken in the dark for 10 min;
(2) plates were read on Victor Nivo.
The equation (Sample-Min)/(Max-Min)*100% was used to convert the original data into inhibition rate, and the IC50 value could be obtained by curve fitting with four parameters (obtained by “log (inhibitor) vs. response—variable slope” mode in GraphPad Prism).

Colo205 cells = test: Colo205 (BRAF V600E) antiproliferative activity experiment (CellTiter-glo); type: cell-based; conditions: Homo sapiens, COLO 205, 72 h, cultured 3 days
Experimental: Experimental Embodiment 4: Colo205 (BRAF^V600E) Antiproliferative Activity Experiment
Cell line COLO205 (purchased from Procell), RPMI1640 culture medium, penicillin/streptomycin antibiotics were purchased from Vicente, and fetal bovine serum was purchased from Biosera. CellTiter-glo (cell viability chemiluminescence detection reagent) reagent was purchased from Promega.
COLO205 cells were seeded in a white 96-well plate with […] of cell suspension per well containing 3000 of COLO205 cells. The cell plate was placed in a carbon dioxide incubator and cultured overnight. The compound to be tested was diluted 3-fold to the 9th concentration with a pipette, that is, diluted from […], and a double-duplicate experiment was set-up. 78 μmol of culture medium was added to the middle plate, then 2 μmol of gradient dilution compound per well was transferred to the middle plate according to the corresponding position, and 20 μmol of per well was mixed and transferred to the cell plate. The concentration of the compound transferred to the cell plate ranged from 1 μmol to 0.15 nmol. The cell plate was placed in a carbon dioxide incubator and cultured for 3 days. Another cell plate was prepared, and the signal value was read as the maximum value (max value in the following equation) on the day of administration to participate in data analysis. 25 μmol of cell viability chemiluminescence detection reagent was added to each well of the cell plate and incubated at room temperature for 10 minutes to stabilize the luminescence signal. A multi-marker analyzer reading was used. After the incubation of the cell plate added with the compound was finished, 25 μmol of cell viability chemiluminescence detection reagent was added to each well of the cell plate and incubated at room temperature for 10 minutes to stabilize the luminescence signal. A multi-marker analyzer reading was used.
as §4

For COc1cc(F)cc([C@@H](CO)NC(=O)[C@@H](C)N2Cc3ccc(-c4nc(N[C@@H]5CCOC[C@H]5F)ncc4Cl)cc3S2(=O)=O)c1 [Compound 2], the IC50 (Calu-6 cells; Homo sapiens, Calu-6, 72 h) was 222 nM and the IC50 ([1]; Homo sapiens, Calu-6, 1 h) was 13.1 nM.

Work on C[C@H](C(=O)N[C@H](CO)c1cc(F)cc(Cl)c1)N1Cc2ccc(-c3nc(NC4CCOCC4)ncc3Cl)cc2S1(=O)=O [Compound 5] yielded an IC50 (Calu-6 cells; Homo sapiens, Calu-6, 72 h) of 222 nM, a Cmax ([2]; mouse, plasma, po) of 90.5 µM and a Tmax ([2]; mouse, plasma) of 0.75 h. For the same compound, the IC50 ([1]; Homo sapiens, Calu-6, 1 h) was 6.92 nM.

Work on Cc1cccc([C@@H](CO)NC(=O)[C@@H](C)N2Cc3ccc(-c4nc(NC5CCOCC5)ncc4Cl)cc3S2(=O)=O)c1 [Compound 7] yielded an IC50 (Calu-6 cells; Homo sapiens, Calu-6, 72 h) of 210 nM and an IC50 ([1]; Homo sapiens, Calu-6, 1 h) of 4.39 nM.

For COc1cc(F)cc([C@@H](C)NC(=O)[C@@H](CO)N2Cc3ccc(-c4nc(NC5CCOCC5)ncc4Cl)cc3S2(=O)=O)c1 [Compound 6], the IC50 (Calu-6 cells; Homo sapiens, Calu-6, 72 h) was 508 nM.

For COc1cc(F)cc([C@@H](CO)NC(=O)[C@@H](C)N2Cc3ccc(-c4nc(NC5CCOCC5)ncc4Cl)cc3S2(=O)=O)c1 [Compound 4], the IC50 (Calu-6 cells) was 239 nM, the “Peak time Tmax” value [2] was 1 h and the Cmax [2] was 182 µM. For the same compound, the IC50 [1] was 6.36 nM.

In the case of [2H]C1([2H])CC(Nc2ncc(Br)c(-c3ccc4c(c3)S(=O)(=O)N([C@H](C)C(=O)N[C@H](CO)c3cc(F)cc(OC)c3)C4)n2)CC([2H])([2H])O1 [Compound 12], the IC50 (A375 cells) is reported as 16 nM, the IC50 (HCT116 cells) is reported as 112 nM and the IC50 (Colo205 cells) is reported as 21 nM. For the same compound, the IC50 ([1]; Homo sapiens, Calu-6, 1 h) was 6.91 nM.

COc1cc(F)cc([C@@H](CO)NC(=O)CN2Cc3ccc(-c4nc(NC5CCOCC5)ncc4Cl)cc3S2(=O)=O)c1 [Compound 10] gave an IC50 (Calu-6 cells; Homo sapiens, Calu-6, 72 h) of 253 nM, a Cmax ([2]; mouse, plasma, po) of 34.6 µM and a Tmax ([2]; mouse, plasma) of 1 h. The IC50 ([1]; Homo sapiens, Calu-6, 1 h) was 3.03 nM.

For COc1cc(F)cc([C@@H](CO)NC(=O)[C@@H](C)N2Cc3ccc(-c4nc(N[C@H]5CCOC[C@H]5F)ncc4Br)cc3S2(=O)=O)c1 [Compound 13], the IC50 (A375 cells) was 17 nM, the IC50 (HCT116 cells) was 138 nM and the IC50 (Colo205 cells) was 21 nM. The IC50 ([1]; Homo sapiens, Calu-6, 1 h) was 7.84 nM.

With C[C@H](C(=O)N[C@H](CO)c1cccc(N(C)C)n1)N1Cc2ccc(-c3nc(NC4CCOCC4)ncc3Cl)cc2S1(=O)=O [Compound 8] the IC50 (Calu-6 cells; Homo sapiens, Calu-6, 72 h) was 313 nM.

Source: US11718610B2, “Compounds containing benzosultam” (MEDSHINE DISCOVERY INC., priority 2020, dated 2023)
